Experimental data reported in US8975249B2, “Heterocyclic compounds and uses thereof” (Celgene Avilomics Research, Inc., priority 2010, dated 2015).
Read-outs that look alike come from different tables or passages of the source.

Experiments:
WT EGFR (A431 cells) = WT EGFR (A431 cells) (Homo sapiens (Human), UniProt P00533); assay: Phospho-EGFR signaling immunoblot in A431 cells (WT EGFR); type: cell-based; conditions: 1 hr treatment, EGF stimulated, phospho-EGFR (Y1068)
Experimental: (§1) A431 human epidermoid carcinoma, H1975 human NSCLC and HCC827 human NSCLC adenocarcinoma cells were obtained from the American Type Culture Center (Manassas, Va.). A431 cells were grown in DMEM (Invitrogen, Carlsbad, Calif.) supplemented with 10% FBS (HyClone, South Logan, Utah) and 1% Penicillin-Streptomycin (P/S, Lonza, Walkersville, Md.).
(§2) All primary antibodies were obtained from Cell Signaling (Danvers, Mass.) and used at 1:1000. Secondary antibodies were used at 1:10,000. Goat anti-mouse IgG IRDye 800CW antibody was obtained from LiCor Biosciences (Lincoln, Nebr.) and goat anti-rabbit IgG Alexa Fluor 680 was obtained from Invitrogen.
(§3) Cells were grown in 12-well plates (Corning, Coring, N.Y.) to 90% confluence and then incubated in low-serum (0.1% FBS) media for 16-18 hr. […] A431 cells were then stimulated with 50 ng/ml EGF (Peprotech, Rocky Hill, N.J.) for 15 min. After treatment, cell monolayers were washed with cold PBS (Invitrogen) and immediately lysed by scrapping into 60 uL cold Cell Extraction Buffer (Invitrogen) supplemented with Complete Protease inhibitors (Roche, Indianapolis, Ind.) and PhosphoSTOP (Roche) phosphatase inhibitors.
(§4) Phospho-protein signals were quantitated using Odyssey Infrared Imaging (Li-Cor Biosciences).
(§5) To assess phosphor-EGFR signaling, blots were probed with rabbit anti-Phospho-EGFR (Y1068) and mouse total anti-EGFR antibodies. Phospho-EGFR signal was normalized to total EGFR expression for each sample. […] Normalized data was fitted using a sigmoidal curve analysis program (Graph Pad Prism version 5) with variable Hill slope to determine the EC50 values.
(§6) The compound numbers recited in Table 4 correspond to the compound numbers in Table 1.

[1] = tested on: H1975 cells (EGFR L858R/T790M); assay: Cell proliferation (CellTiter Glo), H1975 cells
Experimental: (§7) Cells were plated in Growth Media supplemented with 5% FBS and 1% P/S at a density of 3,000 cells per well in 96 well tissue culture plates (Corning). […] Growth inhibition (GI50) values were determined by Graph Pad Prism.

EGFR (WT) = EGFR (WT) (Homo sapiens (Human), UniProt P00533); assay: Omnia biochemical assay, EGFR-WT active enzyme; conditions: [EGFR-WT]=5 nM, [ATP]=15 uM, 30 min pre-incubation
Experimental: Kinase reactions were started with the addition of 45 μL of the ATP/Tyr-Sox peptide substrate mix and monitored every 71 seconds for 60 minutes at λex360/λem485 in a Synergy^4 plate reader from BioTek (Winooski, Vt.).
The compound numbers correspond to the compound numbers in Table 1.

[2] = tested on: HCC827 cells (EGFR delE746-A750); assay: Cell proliferation (CellTiter Glo), HCC827 cells
H1975 tumor = H1975 tumor in vivo study; conditions: female nu/nu mice, H1975 subcutaneous, intraperitoneal 25 mg/kg daily for 21 days, determined at 15 days
Experimental: H1975 Tumor In Vivo Study
Female nu/nu mice were implanted with 1×10^7 H1975 tumor cells in 50% Matrigel subcutaneously (0.2 ml injection volume) in the flank. Tumor measurements were recorded three times per week. Tumors were pair matched when they reached an average size of 100-150 mg. Group size was 10 mice. Test compound was administered intraperitoneal, 25 mg/kg daily for 21 days. % Tumor inhibition values were determined at 15 days, the time at which the control group reached a maximum tumor volume. Tumor volume was followed until tumors reached 1500 mm^3 or 60 days.

[3] = biological target: EGFR double mutation L858R/T790M (H1975 cells) (Homo sapiens (Human), UniProt P00533, L858R/T790M); assay: Phospho-EGFR signaling immunoblot in H1975 cells; type: cell-based; conditions: for EC50: H1975 cells, 1 hr treatment, phospho-EGFR (Y1068); for Ratio WT/mutant (H1975): signaling EC50 WT EGFR / H1975
Experimental: as §1, §2, §3, §4, §5, §6

[4] = biological target: EGFR Deletion/T790M Mutation (H1975 cells) (Homo sapiens (Human), UniProt P00533, L858R/T790M); assay: Washout experiment in H1975 cells (pEGFR after compound removal); type: cell-based; conditions: 500 nM for 1 hr, at 24 h after compound removal
Experimental: Washout Experiment in H1975 Cells Containing EGFR Deletion/T790M Mutation
Cells were plated in Growth Media supplemented with 10% FBS and 1% P/S at a density of 2.0×10^5 cells per well in 12 well tissue culture plates. Cells were allowed to settle down for 4 hrs and then maintained in low-serum (0.1% FBS) media overnight.
The following morning the media was removed and the cells were treated with 500 nM test compound in low-serum media for 1 hr. The cells were washed free of compound 2× with PBS (Invitrogen). One set of cells were immediately lysed as indicated above as the 0 hr time point. The remaining cells were incubated with complete RPMI-1640 growth media (10% FBS) for 1, 3, 6 and 24 hr. For the first 1 hr, cells were washed 2× with PBS every 30 min. DMSO (0.5%) controls were collected at the 0, 3, 6 and 24 hr time points.

A431 cells (WT EGFR) = assay: Cell proliferation (CellTiter Glo), A431 cells
Experimental: as §7

[5] = proliferation GI50 WT EGFR / H1975
[6] = proliferation GI50 WT EGFR / HCC827

Q: With `C=CC(=O)Nc1cccc(Oc2nc(Nc3ccc(N4CCOCC4)cc3OC)ncc2C(F)(F)F)c1` [Compound I-1, N-(3-(2-(2-methoxy-4-morpholinophenylamino)-5-(trifluoromethyl)pyrimidin-4-yloxy)phenyl)acrylamide] as the molecule, how does the EC50 (WT EGFR (A431 cells)) read?
A: > 1 µM

Q: What about the “Ratio WT/mutant (H1975)” value [1, 5] of the same molecule?
A: >15

Q: And the IC50 (EGFR (WT))?
A: 0.03 to 0.1 µM

Q: And the “Ratio WT/mutant (HCC827)” value [2, 6]?
A: >15

Q: And the “% Tumor inhibition” value (H1975 tumor)?
A: >66%

Q: And the EC50 [3]?
A: 0.01 to 0.1 µM

Q: And the “Ratio WT/mutant (H1975)” value [3]?
A: >50

Q: How did the EC50 (WT EGFR (A431 cells)) turn out when `C=CC(=O)Nc1cccc(Nc2nc(Nc3ccc(N4CCOCC4)cc3OC)ncc2C(F)(F)F)c1` [Compound I-2, N-(3-(2-(2-methoxy-4-morpholinophenylamino)-5-(trifluoromethyl)pyrimidin-4-ylamino)phenyl)acrylamide] was run?
A: > 1 µM

Q: What about the “Ratio WT/mutant (H1975)” value [1, 5] of the same molecule?
A: >20

Q: What about the IC50 (EGFR (WT)) of the same molecule?
A: 0.01 to 0.03 µM

Q: What about the “Ratio WT/mutant (HCC827)” value [2, 6] of the same molecule?
A: >40

Q: And the “% Tumor inhibition” value (H1975 tumor)?
A: >66%

Q: And the EC50 [3]?
A: 0.01 to 0.1 µM

Q: And the “Ratio WT/mutant (H1975)” value [3]?
A: >50

Q: And the “activity restored by new protein synthesis” value [4]?
A: 40-60%

Q: Which results are given for `C=CC(=O)Nc1cccc(Nc2nc(Nc3ccc(N4CCN(C(C)=O)CC4)cc3OC)ncc2C(F)(F)F)c1` [Compound I-4, N-(3-(2-(4-(4-acetylpiperazin-1-yl)-2-methoxyphenylamino)-5-(trifluoromethyl)pyrimidin-4-ylamino)phenyl)acrylamide]?
A: % Tumor inhibition (H1975 tumor): >66%; activity restored by new protein synthesis [4]: 40-60%

Q: `C=CC(=O)Nc1cccc(Oc2nc(Nc3ccc(N4CCOCC4)cc3OC)ncc2Cl)c1` [Compound I-5, N-(3-(5-chloro-2-(2-methoxy-4-morpholinophenylamino)pyrimidin-4-yloxy)phenyl)acrylamide] was tested. Which EC50 (WT EGFR (A431 cells)) did it give?
A: > 1 µM

Q: What about the “Ratio WT/mutant (H1975)” value [1, 5] of the same molecule?
A: >5

Q: What about the IC50 (EGFR (WT)) of the same molecule?
A: 0.01 to 0.03 µM

Q: And the “Ratio WT/mutant (HCC827)” value [2, 6]?
A: >20

Q: What about the “% Tumor inhibition” value (H1975 tumor) of the same molecule?
A: >33%

Q: What about the EC50 [3] of the same molecule?
A: 0.01 to 0.1 µM

Q: What about the “Ratio WT/mutant (H1975)” value [3] of the same molecule?
A: >30

Q: What does the source list for `C=CC(=O)Nc1cccc(Oc2nc(Nc3ccc(N4CCN(C(C)=O)CC4)cc3OC)ncc2C(F)(F)F)c1` [Compound I-10, N-(3-(2-(4-(4-acetylpiperazin-1-yl)-2-methoxyphenylamino)-5-(trifluoromethyl)pyrimidin-4-yloxy)phenyl)acrylamide]?
A: Ratio WT/mutant (H1975) [1]: >1; GI50 ([1]; Homo sapiens, NCI-H1975, 72 h, read-out: H1975 GI50 (nM)): 500 to 1000 nM; IC50 (EGFR (WT)): 0.001 to 0.01 µM; Ratio WT/mutant (HCC827) [2]: >20; GI50 ([2]; Homo sapiens, HCC827, 72 h, read-out: HCC827 GI50 (nM)): 100 to 500 nM; GI50 (A431 cells (WT EGFR); Homo sapiens, A-431, 72 h, read-out: WT EGFR GI50 (nM)): > 1000 nM

Q: “N-(3-(5-chloro-2-(2-methoxy-4-morpholinophenylamino)pyrimidin-4-ylamino)phenyl)acrylamide [Compound I-15]” was tested. Which “Ratio WT/mutant (H1975)” value [1, 5] did it give?
A: >1

Q: What about the GI50 ([1]; read-out: H1975 GI50, H1975 cells, 72 hr) of the same molecule?
A: 500 to 1000 nM

Q: What about the IC50 (EGFR (WT)) of the same molecule?
A: 0.03 to 0.1 µM

Q: And the “Ratio WT/mutant (HCC827)” value [2, 6]?
A: >10

Q: And the GI50 ([2]; read-out: HCC827 GI50, HCC827 cells, 72 hr)?
A: 100 to 500 nM

Q: What about the GI50 (A431 cells (WT EGFR); read-out: WT EGFR GI50, A431 cells, 72 hr) of the same molecule?
A: > 1000 nM
